Consider 24 compounds from patent US20200361871A1 (Enterprise Therapeutics Ltd., priority 2018, published 2020).

By EC50 is commonly meant the concentration giving half of the maximal effect.

The target in the experiment is human TMEM16A (TMEM16Aabc variant) (Homo sapiens, UniProt Q5XXA6, DEL476-501, form not given). Briefly: Automated whole-cell patch clamp (Qpatch) TMEM16A potentiator assay in FRT cells stably expressing human TMEM16A. The format is cell-based. Particulars: for % Potentiation @ 3.33 μM Avg: 3.33 μM solution of test compound, percentage increase of baseline TMEM16A current; for EC50: calculated EC50, Qpatch TMEM16A current at +70 mV. From the text:
FIG. 1 is an example trace from a whole-cell patch clamp (Qpatch) TMEM16A potentiator assay as used in Biological Example 95 and illustrates the methodology used in the assay. In FIG. 1: S is Saline; V is Vehicle; #1 is Test Compound concentration #1; #2 is Test Compound concentration 2; #3 is Test Compound concentration 3; #4 is Test Compound concentration 4; #5 is Test Compound concentration #5; and R is Reference. The arrow in column V represents the baseline current, IBL. The arrows in each of the columns #1, #2, #3, #4, #5 and R represent I#[1], I#[2], I#[3], I#[4], I#[5] and I[Ref], which are the peak currents during the incubation periods for test compounds concentrations #1 to #5 and the Reference.
Fisher rat thyroid (FRT) cells stably expressing human TMEM16A (TMEM16Aabc variant; Dr Luis Galietta, Insituto Giannina, Italy) were cultured in T-75 flasks in Hams F-12 media with Coon's modification (Sigma) supplemented with 10% (v/v) foetal bovine serum, penicillin-streptomycin (10,000 U/mL/10000 μg/mL), G-418 (750 μg/mL), L-glutamine (2 mM) and sodium bicarbonate solution (7.5% v/v). At ˜90% confluence cells were harvested for experiments by detachment with a 2:1 (v/v) mixture of Detachin (BMS Biotechnology) and 0.25% (w/v) trypsin-EDTA. Cells were diluted to a density of 3.5-4.5×10^6 cells/mL with media consisting of CHO-S-SFM II (Sigma), 25 mM HEPES (Sigma) and Soy bean trypsin inhibitor (Sigma).
FRT-TMEM16A cells were whole-cell patch clamped using an automated planar patch clamp system (Qpatch, Sophion). Briefly, once high resistance (GOhm) seals were established between the cells and the planar recording array the patch was ruptured using suction pulses to establish the whole-cell recording configuration of the patch clamp technique. The assay employed the following solutions (all reagents Sigma): Intracellular solution (mM): N-methyl-D-glucamine 130, CaCl2 18.2, MgCl2 1, HEPES 10, EGTA 10, BAPTA 20, Mg-ATP 2, pH 7.25, 325 mOsm with sucrose.
Extracellular solution (mM): N-methyl-D-glucamine 130, CaCl2 2, MgCl2 1, HEPES 10, pH 7.3, 320 mOsm with sucrose.
The intracellular solution buffers intracellular calcium at levels required to give ˜20% activation of the maximal TMEM16A mediated current (EC20 for calcium ions). Cells were voltage clamped at a holding potential of −70 mV and a combined voltage step (to +70 mV)/ramp (−90 my to +90 mV) was applied at 0.05 Hz. After a period of current stabilisation test compounds, solubilised in 100% (v/v) DMSO and subsequently diluted into extracellular solution, were applied to generate a cumulative concentration response curve. Each concentration of test compound was incubated for 5 minutes before addition of the next concentration. After the final concentration was tested a supramaximal concentration of either a known active positive modulator or the TMEM16A inhibitor, CaCCinhA01 (Del La Fuente et al, 2008) was added to define the upper and lower limits of the assay.
Compound activity was quantified by measuring the increase in current upon compound addition and expressing this as a percentage increase of baseline TMEM16A current level. Percentage increases in current were determined for each concentration and the data plotted as a function of concentration using either the Qpatch software or Graphpad Prism v6.05 providing the concentration which gave 50% of its maximal effect (EC50) and maximum efficacy (percentage of baseline increase).
In FIG. 1, IBL equals baseline current, I[#1] equals the peak current during test compound concentration 1 incubation period and so on.
Peak TMEM16A current at +70 mV was plotted as a function of time over the assay period. Baseline current (IBL) was measured after a period of stabilisation. The increase in current for each compound addition was determined by taking the peak current during the incubation period and subtracting the current from the previous recording period and then expressing this as a percentage of the baseline current. […]

Chain of human TMEM16A (TMEM16Aabc variant) (Q5XXA6 with tags, fused parts or gaps DEL476-501): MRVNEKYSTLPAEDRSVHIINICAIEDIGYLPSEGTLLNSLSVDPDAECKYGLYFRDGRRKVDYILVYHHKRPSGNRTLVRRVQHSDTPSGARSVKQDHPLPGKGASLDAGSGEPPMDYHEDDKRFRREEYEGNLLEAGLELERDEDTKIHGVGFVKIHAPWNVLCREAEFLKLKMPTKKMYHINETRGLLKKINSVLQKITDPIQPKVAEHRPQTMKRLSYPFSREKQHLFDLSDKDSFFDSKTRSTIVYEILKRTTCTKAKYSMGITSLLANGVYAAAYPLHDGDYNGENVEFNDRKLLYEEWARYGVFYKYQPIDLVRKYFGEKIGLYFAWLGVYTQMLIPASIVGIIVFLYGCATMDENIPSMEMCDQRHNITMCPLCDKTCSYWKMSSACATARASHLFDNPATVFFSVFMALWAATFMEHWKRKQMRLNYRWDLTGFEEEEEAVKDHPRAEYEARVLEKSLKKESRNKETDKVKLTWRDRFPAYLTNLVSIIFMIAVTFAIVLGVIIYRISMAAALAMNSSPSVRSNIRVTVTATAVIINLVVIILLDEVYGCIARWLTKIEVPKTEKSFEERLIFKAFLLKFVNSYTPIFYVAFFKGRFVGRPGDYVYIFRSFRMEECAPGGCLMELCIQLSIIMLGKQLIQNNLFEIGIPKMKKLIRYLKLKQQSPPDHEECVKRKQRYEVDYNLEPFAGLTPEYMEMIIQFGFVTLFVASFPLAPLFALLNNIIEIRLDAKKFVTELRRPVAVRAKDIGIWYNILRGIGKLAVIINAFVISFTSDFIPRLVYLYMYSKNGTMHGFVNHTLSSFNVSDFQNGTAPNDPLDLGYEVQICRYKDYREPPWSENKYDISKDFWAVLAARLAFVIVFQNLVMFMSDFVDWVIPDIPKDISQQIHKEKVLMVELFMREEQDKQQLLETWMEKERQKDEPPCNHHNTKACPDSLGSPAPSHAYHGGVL

With `CC(C)(C)NC(=O)c1cccc(NC(=O)Cc2cc(F)cc(F)c2O)c1` [Example 2.9, N-tert-Butyl-3-[[2-(3,5-difluoro-2-hydroxy-phenyl)acetyl]amino] benzamide], the “% Potentiation @ 3.33 μM Avg” value came out at 148% and the EC50 is 0.99 µM.
Taken in the same sequence, the figures for `CC(C)(C)NC(=O)c1cccc(NC(=O)Cc2cc(Br)ccc2O)c1` [Example 2.10, 3-[[2-(5-Bromo-2-hydroxy-phenyl)acetyl]amino]-N-tert-butyl-benzamide] were 133% and 0.46 µM.
For the compound `CC(C)(C)NC(=O)c1cccc(NC(=O)Cc2c(O)ccc(F)c2F)c1` [Example 2.11, N-tert-Butyl-3-[[2-(2,3-difluoro-6-hydroxy-phenyl)acetyl]amino] benzamide], the “% Potentiation @ 3.33 μM Avg” value amounted to 126% and the EC50 was 0.43 µM.
In the case of `CC(C)(C)NC(=O)c1cccc(NC(=O)Cc2cc(F)c(F)cc2O)c1` [Example 2.12, N-tert-Butyl-3-[[2-(4,5-difluoro-2-hydroxy-phenyl)acetyl]amino] benzamide], the “% Potentiation @ 3.33 μM Avg” value is 111% and the EC50 was 0.31 µM.
Turning to `CCC(C)(C)NC(=O)c1cccc(NC(=O)Cc2ccc(F)cc2O)c1` [Example 2.13, N-(1,1-Dimethylpropyl)-3-[[2-(4-fluoro-2-hydroxy-phenyl)acetyl]amino] benzamide], the “% Potentiation @ 3.33 μM Avg” value is listed as 126% and the EC50 was 0.46 µM.
With `COc1ccc(CC(=O)Nc2cccc(C(=O)NC(C)(C)C)c2)c(O)c1` [Example 2.14, N-tert-Butyl-3-[[2-(2-hydroxy-4-methoxy-phenyl)acetyl]amino]benzamide], the “% Potentiation @ 3.33 μM Avg” value was found to be 100% and the EC50 was 1.78 µM.
As for `CC(C)(C)NC(=O)c1cccc(NC(=O)Cc2c(O)cccc2F)c1` [Example 2.15, N-tert-Butyl-3-[[2-(2-fluoro-6-hydroxy-phenyl)acetyl]amino]benzamide], the “% Potentiation @ 3.33 μM Avg” value was determined as 163% and the EC50 was 0.49 µM.
Consider `CC(C)(C)NC(=O)c1cccc(NC(=O)Cc2cccc(O)c2O)c1` [Example 2.16, N-tert-Butyl-3-[[2-(2,3-dihydroxyphenyl)acetyl]amino]benzamide], for which the “% Potentiation @ 3.33 μM Avg” value is 60% and the EC50 is 4.27 µM.
In the same order, the values of `CC(C)(C)NC(=O)c1cccc(NC(=O)Cc2cc(C(F)(F)F)ccc2O)c1` [Example 2.17, N-tert-Butyl-3-[[2-[2-hydroxy-5-(trifluoromethyl)phenyl]acetyl]amino]benzamide] are 172% and 0.27 µM.
Turning to `COC(=O)c1ccc(O)c(CC(=O)Nc2cccc(C(=O)NC(C)(C)C)c2)c1` [Example 2.18, Methyl 3-[2-[3-(tert-butylcarbamoyl)anilino]-2-oxo-ethyl]-4-hydroxy-benzoate], the “% Potentiation @ 3.33 μM Avg” value is given as 118% and the EC50 was 1.41 µM.
Taken in the same sequence, the figures for `CC(C)(C)NC(=O)c1cccc(NC(=O)Cc2ccc(C(F)(F)F)cc2O)c1` [Example 2.19, N-tert-Butyl-3-[[2-[2-hydroxy-4-(trifluoromethyl)phenyl]acetyl]amino]benzamide] were 249% and 0.46 µM.
For `CC(C)(C)NC(=O)c1cc(NC(=O)Cc2cc(Cl)ccc2O)ccn1` [Example 3, N-tert-Butyl-4-[[2-(5-chloro-2-hydroxy-phenyl)acetyl]amino]pyridine-2-carboxamide], the “% Potentiation @ 3.33 μM Avg” value worked out at 287% and the EC50 is 0.11 µM.
As to `CCC(C)(C)NC(=O)c1cc(NC(=O)Cc2ccc(F)cc2O)ccn1` [Example 3.1a, N-(1,1-Dimethylpropyl)-4-[[2-(4-fluoro-2-hydroxy-phenyl)acetyl]amino]pyridine-2-carboxamide], the “% Potentiation @ 3.33 μM Avg” value is 128% and the EC50 was 0.18 µM.
In the same order, the values of `CC(C)(C)NC(=O)c1cc(NC(=O)Cc2ccc(F)cc2O)ccn1` [Example 3.2a, N-tert-Butyl-4-[[2-(4-fluoro-2-hydroxy-phenyl)acetyl]amino]pyridine-2-carboxamide] are 116% and 0.16 µM.
In the same order, the values of `CC(C)(C)NC(=O)c1cc(NC(=O)Cc2c(O)cccc2Cl)ccn1` [Example 3.3a, N-tert-Butyl-4-[[2-(2-chloro-6-hydroxy-phenyl)acetyl]amino]pyridine-2-carboxamide] are 91% and 0.07 µM.
For the compound `CC(C)(C)NC(=O)c1cc(NC(=O)Cc2cc(Cl)c(Br)cc2O)ccn1` [Example 3.4a, 4-[[2-(4-Bromo-5-chloro-2-hydroxy-phenyl)acetyl]amino]-N-tert-butyl-pyridine-2-carboxamide], the “% Potentiation @ 3.33 μM Avg” value amounted to 206% and the EC50 was 0.14 µM.
Consider `CC(C)(C)c1ccc(O)c(CC(=O)Nc2ccnc(C(=O)NC3(C#N)CCC3)c2)c1` [Example 3.5a, 4-[[2-(5-tert-Butyl-2-hydroxy-phenyl)acetyl]amino]-N-(1-cyanocyclobutyl)pyridine-2-carboxamide], for which the “% Potentiation @ 3.33 μM Avg” value is recorded as 311% and the EC50 was 0.5 µM.
As to `CC(C)(C)NC(=O)c1cc(NC(=O)Cc2cc(C(F)(F)F)ccc2O)ccn1` [Example 3.5b, N-tert-Butyl-4-[[2-[2-hydroxy-5-(trifluoromethyl)phenyl]acetyl]amino]pyridine-2-carboxamide], the “% Potentiation @ 3.33 μM Avg” value came to 150% and the EC50 is 0.2 µM.
As for `CC1(NC(=O)c2cc(NC(=O)Cc3cc(C(C)(C)C)ccc3O)ccn2)CCC1` [Example 3.6a, 4-[[2-(5-tert-Butyl-2-hydroxy-phenyl)acetyl]amino]-N-(1-methylcyclobutyl)pyridine-2-carboxamide], the “% Potentiation @ 3.33 μM Avg” value is on record as 546% and the EC50 is 0.37 µM.
Consider `CC(C)(C)NC(=O)c1cc(NC(=O)Cc2ccc(Cl)cc2O)ccn1` [Example 3.6b, N-tert-Butyl-4-[[2-(4-chloro-2-hydroxy-phenyl)acetyl]amino]pyridine-2-carboxamide], for which the “% Potentiation @ 3.33 μM Avg” value is on record as 205% and the concentration for a half-maximal effect (EC50) was 0.12 µM.
Turning to `CC(C)(C)NC(=O)c1cc(NC(=O)Cc2c(O)c(Br)cc(F)c2Br)ccn1` [Example 3.7a, N-tert-butyl-4-[2-(2,5-dibromo-3-fluoro-6-hydroxyphenyl)acetamido]pyridine-2-carboxamide], the “% Potentiation @ 3.33 μM Avg” value is given as 135% and the EC50 is 0.28 µM.
Consider `CC(C)(C)NC(=O)c1cc(NC(=O)Cc2ccc(C(F)(F)F)cc2O)ccn1` [Example 3.7b, N-tert-Butyl-4-[[2-[2-hydroxy-4-(trifluoromethyl)phenyl]acetyl]amino]pyridine-2-carboxamide], for which the “% Potentiation @ 3.33 μM Avg” value worked out at 160% and the EC50 is 0.18 µM.
`COc1ccc(O)c(CC(=O)Nc2ccnc(C(=O)NC(C)(C)C)c2)c1` [Example 3.8b, N-tert-Butyl-4-[[2-(2-hydroxy-5-methoxy-phenyl)acetyl]amino]pyridine-2-carboxamide]: the “% Potentiation @ 3.33 μM Avg” value came to 203% and the EC50 is 0.3 µM.
On to `CC(C)(C)NC(=O)c1cc(NC(=O)C2CCc3ccc(O)cc32)ccn1` (stereo not drawn) [Example 3.9b, N-tert-Butyl-4-[(6-hydroxyindane-1-carbonyl)amino]pyridine-2-carboxamide], for which the “% Potentiation @ 3.33 μM Avg” value stood at 144% and the concentration giving a half-maximal response (EC50) was 0.96 µM.
